{"source": "patent US20060046988A1", "about": "“Methoprene formulations for the control of tick infestations” (priority 2004, published 2006)", "system": "Boophilus microplus", "assay": "In vitro immersion of engorged female ticks in (S)-methoprene: egg laying, egg weight, hatching", "details": "for Eggs Viable / Eggs Weight / Number of Ticks Laying Eggs (Day 14): 10 ticks treated; for Eggs Hatch (%): eggs incubated another 4 weeks; for Total Egg Mass / Total Viable Egg Mass / Total Number of Ticks Laying Eggs: both replicates; for Total Number of Ticks Laying Eggs: 20 ticks treated; for Percent Reduction in Egg Mass per Tick / Percent Reduction in Number of Ticks Laying Eggs / Percent Reduction in Total Egg Mass / inhibition at 100 ppm / inhibition at 1000 ppm / inhibition at 10000 ppm / inhibition at 100000 ppm: vs 0 ppm; for inhibition at 100 ppm / inhibition at 1000 ppm / inhibition at 10000 ppm / inhibition at 100000 ppm: Rhipicephalus microplus", "source_text": "Engorged female ticks were separated into groups of 10, weighed and placed in small containers. Group assignments were adjusted so that the total weight of ticks in each group was similar. Each container of 10 ticks was then randomly assigned to one of the five treatment groups, with two replicates per group. Each replicate of ten female ticks each was then immersed in a solution of (S)-methoprene at a concentration of 0, 100, 1000, 10000 and 100000 ppm of (S)-methoprene diluted in acetone:water (40:60 vN). The ticks were maintained immersed in a treatment for 2 minutes.\nAfter exposure, ticks were removed and dried in a pad prepared with paper towels. Each group was then placed into a clean container identified with the treatment group and incubated for 2 weeks at approximately 27° Celsius and 60% or higher relative humidity to determine the proportion of egg laying females. Eggs laid were weighed and incubated for another 4-week period for hatching observation.", "note": "Where two headings read alike, the source gives them in different places.", "data": [{"compound": "COC(C)(C)CCC[C@H](C)C/C=C/C(C)=C/C(=O)OC(C)C", "note": "[(S)-methoprene]", "values": [{"measurement": "Egg Mass per Tick", "setting": "100 ppm", "result": 0.173, "unit": "g"}, {"measurement": "Viable Egg Mass per Tick", "setting": "100 ppm", "result": 0.173, "unit": "g"}, {"measurement": "Eggs Viable", "setting": "100 ppm, Replicate A", "result": 1.38, "unit": "g"}, {"measurement": "Eggs Weight", "setting": "100 ppm, Replicate A", "result": 1.38, "unit": "g"}, {"measurement": "Number of Ticks Laying Eggs (Day 14)", "setting": "100 ppm, Replicate A", "result": 9}, {"measurement": "Eggs Hatch (%)", "setting": "100 ppm, Replicate A", "result": 100, "unit": "%"}, {"measurement": "Eggs Viable", "setting": "100 ppm, Replicate B", "result": 1.39, "unit": "g"}, {"measurement": "Eggs Weight", "setting": "100 ppm, Replicate B", "result": 1.39, "unit": "g"}, {"measurement": "Number of Ticks Laying Eggs (Day 14)", "setting": "100 ppm, Replicate B", "result": 7}, {"measurement": "Eggs Hatch (%)", "setting": "100 ppm, Replicate B", "result": 100, "unit": "%"}, {"measurement": "Total Egg Mass", "setting": "100 ppm", "result": 2.77, "unit": "g"}, {"measurement": "Total Viable Egg Mass", "setting": "100 ppm", "result": 2.77, "unit": "g"}, {"measurement": "Total Number of Ticks Laying Eggs", "setting": "100 ppm", "result": 16}, {"measurement": "Percent Reduction in Egg Mass per Tick", "setting": "100 ppm", "result": 1, "unit": "%"}, {"measurement": "Percent Reduction in Number of Ticks Laying Eggs", "setting": "100 ppm", "result": 20, "unit": "%"}, {"measurement": "Percent Reduction in Total Egg Mass", "setting": "100 ppm", "result": 21, "unit": "%"}, {"measurement": "Egg Mass per Tick", "setting": "1,000 ppm", "result": 0.152, "unit": "g"}, {"measurement": "Viable Egg Mass per Tick", "setting": "1,000 ppm", "result": 0.022, "unit": "g"}, {"measurement": "Eggs Viable", "setting": "1,000 ppm, Replicate A", "result": 0.09, "unit": "g"}, {"measurement": "Eggs Weight", "setting": "1,000 ppm, Replicate A", "result": 0.47, "unit": "g"}, {"measurement": "Number of Ticks Laying Eggs (Day 14)", "setting": "1,000 ppm, Replicate A", "result": 3}, {"measurement": "Eggs Hatch (%)", "setting": "1,000 ppm, Replicate A", "result": 20, "unit": "%"}, {"measurement": "Eggs Viable", "setting": "1,000 ppm, Replicate B", "result": 0.04, "unit": "g"}, {"measurement": "Eggs Weight", "setting": "1,000 ppm, Replicate B", "result": 0.44, "unit": "g"}, {"measurement": "Number of Ticks Laying Eggs (Day 14)", "setting": "1,000 ppm, Replicate B", "result": 3}, {"measurement": "Eggs Hatch (%)", "setting": "1,000 ppm, Replicate B", "result": 10, "unit": "%"}, {"measurement": "Total Egg Mass", "setting": "1,000 ppm", "result": 0.91, "unit": "g"}, {"measurement": "Total Viable Egg Mass", "setting": "1,000 ppm", "result": 0.13, "unit": "g"}, {"measurement": "Total Number of Ticks Laying Eggs", "setting": "1,000 ppm", "result": 6}, {"measurement": "Percent Reduction in Egg Mass per Tick", "setting": "1,000 ppm", "result": 13, "unit": "%"}, {"measurement": "Percent Reduction in Number of Ticks Laying Eggs", "setting": "1,000 ppm", "result": 70, "unit": "%"}, {"measurement": "Percent Reduction in Total Egg Mass", "setting": "1,000 ppm", "result": 74, "unit": "%"}, {"measurement": "Egg Mass per Tick", "setting": "10,000 ppm", "result": 0.134, "unit": "g"}, {"measurement": "Viable Egg Mass per Tick", "setting": "10,000 ppm", "result": 0, "unit": "g"}, {"measurement": "Eggs Viable", "setting": "10,000 ppm, Replicate A", "result": 0, "unit": "g"}, {"measurement": "Eggs Weight", "setting": "10,000 ppm, Replicate A", "result": 1.22, "unit": "g"}, {"measurement": "Number of Ticks Laying Eggs (Day 14)", "setting": "10,000 ppm, Replicate A", "result": 9}, {"measurement": "Eggs Hatch (%)", "setting": "10,000 ppm, Replicate A", "result": 0, "unit": "%"}, {"measurement": "Eggs Viable", "setting": "10,000 ppm, Replicate B", "result": 0, "unit": "g"}, {"measurement": "Eggs Weight", "setting": "10,000 ppm, Replicate B", "result": 0.92, "unit": "g"}, {"measurement": "Number of Ticks Laying Eggs (Day 14)", "setting": "10,000 ppm, Replicate B", "result": 7}, {"measurement": "Eggs Hatch (%)", "setting": "10,000 ppm, Replicate B", "result": 0, "unit": "%"}, {"measurement": "Total Egg Mass", "setting": "10,000 ppm", "result": 2.14, "unit": "g"}, {"measurement": "Total Viable Egg Mass", "setting": "10,000 ppm", "result": 0, "unit": "g"}, {"measurement": "Total Number of Ticks Laying Eggs", "setting": "10,000 ppm", "result": 16}, {"measurement": "Percent Reduction in Egg Mass per Tick", "setting": "10,000 ppm", "result": 23, "unit": "%"}, {"measurement": "Percent Reduction in Number of Ticks Laying Eggs", "setting": "10,000 ppm", "result": 20, "unit": "%"}, {"measurement": "Percent Reduction in Total Egg Mass", "setting": "10,000 ppm", "result": 39, "unit": "%"}, {"measurement": "Egg Mass per Tick", "setting": "100,000 ppm", "result": 0.125, "unit": "g"}, {"measurement": "Viable Egg Mass per Tick", "setting": "100,000 ppm", "result": 0, "unit": "g"}, {"measurement": "Eggs Viable", "setting": "100,000 ppm, Replicate A", "result": 0, "unit": "g"}, {"measurement": "Eggs Weight", "setting": "100,000 ppm, Replicate A", "result": 0.58, "unit": "g"}, {"measurement": "Number of Ticks Laying Eggs (Day 14)", "setting": "100,000 ppm, Replicate A", "result": 4}, {"measurement": "Eggs Hatch (%)", "setting": "100,000 ppm, Replicate A", "result": 0, "unit": "%"}, {"measurement": "Eggs Viable", "setting": "100,000 ppm, Replicate B", "result": 0, "unit": "g"}, {"measurement": "Eggs Weight", "setting": "100,000 ppm, Replicate B", "result": 0.42, "unit": "g"}, {"measurement": "Number of Ticks Laying Eggs (Day 14)", "setting": "100,000 ppm, Replicate B", "result": 4}, {"measurement": "Eggs Hatch (%)", "setting": "100,000 ppm, Replicate B", "result": 0, "unit": "%"}, {"measurement": "Total Egg Mass", "setting": "100,000 ppm", "result": 1.00, "unit": "g"}, {"measurement": "Total Viable Egg Mass", "setting": "100,000 ppm", "result": 0, "unit": "g"}, {"measurement": "Total Number of Ticks Laying Eggs", "setting": "100,000 ppm", "result": 8}, {"measurement": "Percent Reduction in Egg Mass per Tick", "setting": "100,000 ppm", "result": 29, "unit": "%"}, {"measurement": "Percent Reduction in Number of Ticks Laying Eggs", "setting": "100,000 ppm", "result": 60, "unit": "%"}, {"measurement": "Percent Reduction in Total Egg Mass", "setting": "100,000 ppm", "result": 71, "unit": "%"}, {"measurement": "inhibition at 100 ppm", "setting": "100 ppm, read-out: Percent Reduction in Viable Egg Mass", "result": 21, "unit": "%"}, {"measurement": "inhibition at 100 ppm", "setting": "100 ppm, read-out: Percent Reduction in Viable Egg Mass per Tick", "result": 1, "unit": "%"}, {"measurement": "inhibition at 1000 ppm", "setting": "1,000 ppm, read-out: Percent Reduction in Viable Egg Mass", "result": 96, "unit": "%"}, {"measurement": "inhibition at 1000 ppm", "setting": "1,000 ppm, read-out: Percent Reduction in Viable Egg Mass per Tick", "result": 87, "unit": "%"}, {"measurement": "inhibition at 10000 ppm", "setting": "10,000 ppm, read-out: Percent Reduction in Viable Egg Mass", "result": 100, "unit": "%"}, {"measurement": "inhibition at 10000 ppm", "setting": "10,000 ppm, read-out: Percent Reduction in Viable Egg Mass per Tick", "result": 100, "unit": "%"}, {"measurement": "inhibition at 100000 ppm", "setting": "100,000 ppm, read-out: Percent Reduction in Viable Egg Mass", "result": 100, "unit": "%"}, {"measurement": "inhibition at 100000 ppm", "setting": "100,000 ppm, read-out: Percent Reduction in Viable Egg Mass per Tick", "result": 100, "unit": "%"}, {"measurement": "egg laying", "setting": "all treatment groups (100 to 100000 ppm)", "result": "Eggs were laid"}, {"measurement": "egg viability", "setting": "concentrations at and above 10,000 ppm", "result": "completely inhibited"}, {"measurement": "egg hatching", "setting": "concentrations of 10,000 ppm and above", "result": "did not hatch"}]}]}
